Where two headings read alike, the source gives them in different places.
Key:
[1] = biological target: T1, human GPR18 (Homo sapiens, UniProt Q14330); assay: β-Arrestin PathHunter assay, recombinant CHO cells expressing GPR18; type: cell-based; conditions: for Human GPR18 % activation / Human GPR18 % inhibition: value in parentheses
T1 construct: host or cells: CHO cells
T1 sequence (Q14330 1-331): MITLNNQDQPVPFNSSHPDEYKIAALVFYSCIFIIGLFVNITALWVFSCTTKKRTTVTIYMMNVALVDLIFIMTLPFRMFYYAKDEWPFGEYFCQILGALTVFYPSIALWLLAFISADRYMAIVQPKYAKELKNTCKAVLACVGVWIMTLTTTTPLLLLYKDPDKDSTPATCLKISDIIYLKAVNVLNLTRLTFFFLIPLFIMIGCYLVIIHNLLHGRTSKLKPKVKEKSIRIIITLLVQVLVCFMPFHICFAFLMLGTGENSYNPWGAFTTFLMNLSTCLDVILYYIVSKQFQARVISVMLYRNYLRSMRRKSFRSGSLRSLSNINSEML
Procedure: (§1) β-Arrestin assays were performed in recombinant CHO cells expressing either the human GPR18 or the human GPR55 as described before using the β-galactosidase enzyme fragment complementation technology (β-arrestin PathHunter™ assay; DiscoverX, Fremont, CA, USA).
(§2) The orphan receptors GPR18 and GPR55 can interact with certain natural and synthetic cannabinoids. […] Therefore, we investigated the new series of indole, indazole, benzimidazole and carbazole-derived structures in β-arrestin assays at GPR18 and GPR55 (Table 2). […] For the lipophilic substitutions, the following rank order of potency was observed: ethyl > methyl > chloro > fluoro. Therefore, it can be concluded that a lipophilic substitution in position 4 of the naphthyl residue was a requirement for GPR55 inhibition.

[2] = biological target: T2, human CB2 receptor (Homo sapiens, UniProt P34972); assay: biochemical; type: binding; conditions: [3H]CP55,940 0.1 nM, CHO cell membranes; read-out: Ki ± SEM Human CB2
T2 construct: expressed in transfected cells; host or cells: CHO cells (membrane preparations)

[3] = biological target: T3, human CB1 receptor (Homo sapiens, UniProt P21554); assay: biochemical; type: binding; conditions: [3H]CP55,940 0.1 nM, CHO cell membranes; read-out: Ki ± SEM Human CB1
T3 construct: expressed in transfected cells; host or cells: CHO cells (membrane preparations)

[4] = biological target: T4, human GPR55 (Homo sapiens, UniProt Q9Y2T6); assay: β-Arrestin PathHunter assay, recombinant CHO cells expressing GPR55; type: cell-based; conditions: for Human GPR55 % activation / Human GPR55 % inhibition: value in parentheses; for Human GPR55 % inhibition: antagonist mode versus LPI 1 µM
T4 construct: host or cells: CHO cells
Procedure: as §1, §2

[5] = biological target: CB2 receptor; conditions: membrane potential assay, cited from earlier work
[6] = biological target: CB1 receptor; conditions: membrane potential assay, cited from earlier work

T4 sequence (Q9Y2T6 whole entry): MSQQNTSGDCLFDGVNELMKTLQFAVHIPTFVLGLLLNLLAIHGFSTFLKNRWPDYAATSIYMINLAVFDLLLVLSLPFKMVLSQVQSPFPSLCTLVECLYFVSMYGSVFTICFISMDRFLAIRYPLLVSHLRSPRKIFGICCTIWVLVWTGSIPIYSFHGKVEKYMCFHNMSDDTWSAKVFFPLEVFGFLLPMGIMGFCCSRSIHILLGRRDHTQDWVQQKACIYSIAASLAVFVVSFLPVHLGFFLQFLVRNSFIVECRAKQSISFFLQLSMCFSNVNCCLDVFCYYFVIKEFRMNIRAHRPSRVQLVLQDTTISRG
T2 sequence (P34972 whole entry): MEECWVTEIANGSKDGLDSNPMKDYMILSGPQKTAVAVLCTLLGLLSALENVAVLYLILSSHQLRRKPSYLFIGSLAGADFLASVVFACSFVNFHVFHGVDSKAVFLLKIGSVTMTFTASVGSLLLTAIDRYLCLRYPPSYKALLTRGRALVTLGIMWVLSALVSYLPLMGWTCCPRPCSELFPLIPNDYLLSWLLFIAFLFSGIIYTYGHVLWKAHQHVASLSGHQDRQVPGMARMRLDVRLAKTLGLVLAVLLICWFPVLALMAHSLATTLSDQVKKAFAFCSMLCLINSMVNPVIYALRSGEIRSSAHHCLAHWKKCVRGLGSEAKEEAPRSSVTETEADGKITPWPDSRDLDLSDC
T3 sequence (P21554 whole entry): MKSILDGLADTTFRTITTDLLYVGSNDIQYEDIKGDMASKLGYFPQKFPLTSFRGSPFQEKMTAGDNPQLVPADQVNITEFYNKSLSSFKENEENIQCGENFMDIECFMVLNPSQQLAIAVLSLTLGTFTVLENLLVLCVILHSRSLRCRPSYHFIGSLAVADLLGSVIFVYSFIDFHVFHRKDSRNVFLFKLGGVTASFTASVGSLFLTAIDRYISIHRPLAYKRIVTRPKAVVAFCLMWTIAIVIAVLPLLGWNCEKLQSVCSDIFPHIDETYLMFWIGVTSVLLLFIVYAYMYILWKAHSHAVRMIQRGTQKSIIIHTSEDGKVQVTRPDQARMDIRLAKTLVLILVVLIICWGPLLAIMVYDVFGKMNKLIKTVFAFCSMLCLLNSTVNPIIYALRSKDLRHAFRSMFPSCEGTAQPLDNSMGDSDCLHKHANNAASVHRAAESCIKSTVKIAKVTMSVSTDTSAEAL

Structure (SMILES)	EC50 [1]	IC50 [1]	Human GPR18 % activation ([1]; agonist mode)	Ki [2]	Ki [3]	EC50 [4]	IC50 [4]	Human GPR55 % activation ([4]; agonist mode)	Human GPR55 % inhibition [4]	Human GPR18 % inhibition ([1]; antagonist mode)	EC50 ([5]; ref Banister et al. [38])	EC50 ([6]; ref Banister et al. [38])	EC50 ([5]; ref Banister et al. [42])	EC50 ([6]; ref Banister et al. [42])	EC50 ([1]; agonist mode, read-out: Human GPR18 EC50)	IC50 ([1]; antagonist mode, read-out: Human GPR18 IC50)	EC50 ([4]; agonist mode, read-out: Human GPR55 EC50)	IC50 ([4]; antagonist mode versus lysophosphatidylinositol (LPI, 1 µM), read-out: Human GPR55 IC50)
CC[C@H](C)[C@H](NC(=O)c1nn(CCCCCF)c2ccccc12)C(N)=O (single isomer, unassigned; isomer 2) [compound 26, 5F-ADB-PINACA-isomer 2]	> 10000 nM	> 10000 nM	8%	4.28 ± 2.86 nM	3.1 ± 1.53 nM	> 10000 nM	> 10000 nM	2%	–	–	–	–	–	–	–	–	–	–
O=C(Nc1cccc2ccccc12)c1cn(Cc2ccc(F)cc2)c2ccccc12 [compound 4, FDU-NNEI]	> 10000 nM	> 10000 nM	20%	64 ± 15 nM	7.42 ± 2.51 nM	> 10000 nM	> 10000 nM	13%	2%	–	–	–	–	–	–	–	–	–
CCCCCn1cc(C(=O)N[C@H](C(=O)OC)C(C)C)c2ccccc21 [compound 5, MMB-018]	> 10000 nM	> 10000 nM	13%	14 ± 0.8 nM	15.1 ± 5.9 nM	> 10000 nM	> 10000 nM	5%	5%	–	–	–	–	–	–	–	–	–
CCCCCn1nc(C(=O)N[C@H](C(=O)OC)C(C)C)c2ccccc21 [compound 6, AMB]	> 10000 nM	> 10000 nM	42%	0.973 ± 0.104 nM	0.866 ± 0.057 nM	> 10000 nM	> 10000 nM	15%	28%	15%	–	–	–	–	–	–	–	–
COC(=O)[C@@H](NC(=O)c1cn(CCCCCF)c2ccccc12)C(C)C [compound 7, MMB-2201]	> 10000 nM	> 10000 nM	2%	19.8 ± 4.2 nM	15.2 ± 5 nM	> 10000 nM	> 10000 nM	5%	–	–	–	–	–	–	–	–	–	–
COC(=O)[C@@H](NC(=O)c1nn(CCCCCF)c2ccccc12)C(C)C [compound 8, 5F-AMB]	> 10000 nM	> 10000 nM	1%	1.38 ± 0.22 nM	1.13 ± 0.48 nM	> 10000 nM	> 10000 nM	14%	–	–	10 nM	1.9 nM	–	–	–	–	–	–
COC(=O)[C@@H](NC(=O)c1nn(Cc2ccc(F)cc2)c2ccccc12)C(C)C [compound 9, FUB-AMB]	> 10000 nM	> 10000 nM	–	0.536 ± 0.115 nM	0.387 ± 0.135 nM	> 10000 nM	> 10000 nM	4%	17%	11%	18 nM	2 nM	–	–	–	–	–	–
COC(=O)[C@@H](NC(=O)c1nn(CC2CCCCC2)c2ccccc12)C(C)C [compound 10]	> 10000 nM	> 10000 nM	19%	0.301 ± 0.092 nM	0.339 ± 0.073 nM	> 10000 nM	> 10000 nM	2%	31%	> 10 (10%)	29 nM	5.1 nM	–	–	–	–	–	–
COC(=O)[C@@H](NC(=O)c1cn(CC2CCCCC2)c2ccccc12)C(C)(C)C [compound 13, MDMB-CHMICA]	> 10000 nM	14100 ± 3100 nM	5%	0.354 ± 0.05 nM	0.41 ± 0.141 nM	> 10000 nM	> 10000 nM	5%	38%	–	71 nM	10 nM	–	–	–	–	–	–
COC(=O)[C@@H](NC(=O)c1nn(CC2CCCCC2)c2ccccc12)C(C)(C)C [compound 14]	> 10000 nM	~10000 nM	27%	0.222 ± 0.034 nM	0.135 ± 0.028 nM	> 10000 nM	10300 ± 1700 nM	–	–	51%	128 nM	10 nM	–	–	–	–	–	–
CC(C)[C@H](NC(=O)c1cn(CCCCCF)c2ccccc12)C(N)=O [compound 15, 5F-AB-PICA]	> 10000 nM	> 10000 nM	23%	89 ± 33.2 nM	35 ± 7.7 nM	> 10000 nM	> 10000 nM	> 10 (10%)	–	–	–	–	8.9 nM	5.2 nM	–	–	–	–
CC(C)[C@H](NC(=O)c1nn(CCCCCCl)c2ccccc12)C(N)=O [compound 17, 5Cl-AB-PINACA]	> 10000 nM	> 10000 nM	4%	12 ± 1.7 nM	4.06 ± 1.95 nM	> 10000 nM	> 10000 nM	17%	–	0%	–	–	–	–	–	–	–	–
CC(C)(C)[C@H](NC(=O)c1cn(CC2CCCCC2)c2ccccc12)C(N)=O [compound 22, ADB-CHMICA]	> 10000 nM	> 10000 nM	8%	0.628 ± 0.231 nM	1.24 ± 0.36 nM	> 10000 nM	> 10000 nM	17%	8%	14%	–	–	–	–	–	–	–	–
CC(C)(C)[C@H](NC(=O)c1nn(Cc2ccc(F)cc2)c2ccccc12)C(N)=O [compound 24, ADB-FUBINACA]	> 10000 nM	> 10000 nM	7%	0.339 ± 0.059 nM	–	> 10000 nM	> 10000 nM	7%	–	16%	–	–	3.5 nM	1.2 nM	–	–	–	–
CC(C)(C)[C@H](NC(=O)c1nn(CC2CCCCC2)c2ccccc12)C(N)=O [compound 25]	> 10000 nM	> 10000 nM	6%	0.331 ± 0.048 nM	0.333 ± 0.059 nM	> 10000 nM	> 10000 nM	16%	–	> 10 (10%)	–	–	–	–	–	–	–	–
NC(=O)[C@H](Cc1ccccc1)NC(=O)c1cn(CCCCCF)c2ccccc12 [compound 27, PX-1]	> 10000 nM	> 10000 nM	15%	164 ± 17 nM	485 ± 117 nM	> 10000 nM	> 10000 nM	6%	1%	–	–	–	–	–	–	–	–	–
NC(=O)[C@H](Cc1ccccc1)NC(=O)c1nn(CCCCCF)c2ccccc12 [compound 28, PX-2]	> 10000 nM	> 10000 nM	–	17.4 ± 1.4 nM	127 ± 43 nM	> 10000 nM	> 10000 nM	16%	–	15%	–	–	–	–	–	–	–	–
COC(=O)[C@@H](OC(=O)c1nn(CC2CCCCC2)c2ccccc12)C(C)(C)C [compound 34]	> 10000 nM	12600 ± 3500 nM	0%	1.11 ± 0.14 nM	10.4 ± 7.4 nM	> 10000 nM	9290 ± 1700 nM	1%	–	–	–	–	–	–	–	–	–	–
O=C(c1cccc2ccccc12)c1cn(Cc2ccc(F)cc2)c2ccccc12 [compound 35, FUB-JWH-018]	> 10000 nM	> 10000 nM	20%	1.34 ± 0.48 nM	3.27 ± 1.76 nM	> 10000 nM	> 10000 nM	7%	30%	30%	–	–	–	–	–	–	–	–
O=C(c1ccc(F)c2ccccc12)c1cn(CCCCCF)c2ccccc12 [compound 36, F-2201]	> 10000 nM	> 10000 nM	18%	1.89 ± 0.57 nM	0.852 ± 0.192 nM	> 10000 nM	22100 ± 12200 nM	–	–	14%	–	–	–	–	–	–	–	–
O=C(c1ccc(Cl)c2ccccc12)c1cn(CCCCCF)c2ccccc12 [compound 37, Cl-2201]	> 10000 nM	> 10000 nM	16%	1.18 ± 0.19 nM	0.772 ± 0.101 nM	> 10000 nM	7120 ± 1260 nM	–	–	4%	–	–	–	–	–	–	–	–
CCCCCn1c2ccccc2c2cc(C(=O)c3cccc4ccccc34)ccc21 [compound 39, EG-018]	–	–	2%	2.27 ± 0.38 nM	–	–	–	0%	1%	–	–	–	–	–	> 10000 nM	> 10000 nM	> 10000 nM	> 10000 nM
